We go through 1 sequence from publication PMC7913925, “Design and Evaluation of a Polypeptide That Mimics the Integrin Binding Site for EDA Fibronectin to Block Profibrotic Cell Activity” (International Journal of Molecular Sciences, 2021).

Bridges are numbered along the chain shown (N, C = ends). Where no end group is shown, it is not given here.

Test [1] concerns the target COL-RGD (RGD motif of collagen I) (Homo sapiens, UniProt P02452). In words: Isothermal calorimetry, AF38Pep with COL-RGD. Format: binding. The following applies: 25 °C, pH 7. Here is the method: Custom designed peptides were resuspended in sterile-filtered HEPES buffered saline (140 mM NaCl, 1.5 mM Na2HPO4, 50 mM HEPES; pH 7). The larger EDA-FN binding peptide was diluted to 15 µM, degassed and added to the calorimetry chamber well. Three smaller test peptides (fibronectin EDA-peptide, FN-EDA; fibronectin RGD-peptide, FN-RGD and collagen I RGD-peptide, COL-RGD) were diluted to 300 µM, degassed and each was separately loaded into the calorimetry injection needle. The chamber well temperature was kept consistent at 25 °C. Blank buffer was used to replace either the well peptide or the injection needle peptide to account for background heat generation. Isothermal titration calorimetry was performed using a MicroCal iTC200 (Malvern Panalytical, Malvern, UK) and dissociation constant (KD) and association constant (KA) were calculated using the one set of sites model fitting (with number of binding sites assumed to be 1) in MicroCal Origin Software v8.5 (Malvern Panalytical).

For test [2], the system named is pro-MMP2. In words: Gelatinase zymography pro-MMP2. The conditions noted are these: 48 h, TGF-β1 10 ng/mL, AF38Pep 10 µg/mL, conditioned medium. Format: cell-based, mouse. As for the experimental part: Conditioned media were collected from cells incubated with serum-free medium (SFM) alone, SFM containing 10 ng/mL TGF-β1, SFM containing 10 µg/mL AF38Pep, or SFM containing both 10 ng/mL TGF-β1 and 10 µg/mL AF38Pep. Conditioned medium was concentrated 10× by filtrating spin columns (Amicon Ultra-4 10 kDa MWCO, Merck Millipore) and protein was quantified by Micro BCA Protein Assay Kit (Thermo Fisher Scientific). A 1.5 mm thick 10% nonreducing acrylamide gel containing gelatin was prepared and 10 µg of sample in 5 × nonreducing buffer was loaded into the gel lanes. The gel was run at 100 V until the protein entered the stacking gel layer, then the voltage was increased to 150 V until the marker achieved resolved band separation. The gels were then washed twice for 30 min using wash buffer to remove SDS and renature the enzymes. Gels were further rinsed for 5–10 min in incubation buffer at 37 °C with agitation to activate the gelatinase reaction. Fresh incubation buffer was added, and the gels were incubated overnight at 37 °C. Gels were stained with staining solution containing Coomassie blue for between 30 min to 1 h, before rinsing with ddH2O and subsequent incubation with de-stain solution until bands could be observed. The gels were transferred to 2% acetic acid and rehydrated overnight for imaging by scanner.

The test system of test [3] is α-SMA in NIH/3T3 dermal fibroblasts. As to the kind of experiment: Immunocytochemistry α-SMA stress fibers. Format: cell-based, mouse. The conditions noted are these: 48 h, TGF-β1 10 ng/mL, AF38Pep 10 µg/mL. As for the experimental part: Cells were grown to 40% confluence in 8-well glass chamber slides (Nunc, Thermo Fisher Scientific), prior to growth arrest and treatment. Cells were washed with PBS before fixation in 4% paraformaldehyde for 10 min at room temperature. Next, cells were permeabilized with 0.1% (v/v) Triton X-100 in PBS for 10 min at room temperature. For visualization of ECM, cells were fixed with 100% ice-cold methanol for 8 min at −20 °C. Slides were washed with PBS and blocked with 1% goat serum (TBD Science, Tianjin, China) for 30 min before washing with 0.1% (w/v) BSA in PBS. Subsequently, slides were incubated with monoclonal mouse anti-α-SMA antibody (Sigma-Aldrich, 1:50) diluted in 0.1% BSA-PBS, overnight at 4 °C. After further wash steps, slides were incubated with goat anti-mouse IgG CF-488 secondary antibody (Abcam, 1:1000) in 0.1% BSA-PBS for 1 h at room temperature and under darkness. For F-actin visualization, after fixation and permeabilization; cells were incubated with phalloidin conjugated to FITC (Sigma-Aldrich) in 0.1% BSA-PBS, overnight at 4 °C. Cells were then mounted in DAPI Fluoromount-G (Thermo Fisher Scientific) and imaged using a Zeiss Axio Imager Z1 UV fluorescence microscope (Zeiss, Jena, Germany) and a Leica TCS SP5 laser scanning confocal microscope (Leica Biosystems, Baden-Württemberg, Germany).

Test [4] relates to mouse NIH/3T3 dermal fibroblast cells, α-SMA mRNA. As to the kind of experiment: α-SMA mRNA expression (qRT-PCR) in TGF-β1-treated NIH/3T3. Format: cell-based. As for the experimental part: HFL1 cells were cultured in Kaighn’s modified Ham’s F-12 (F-12K) medium (Sigma-Aldrich) containing NaHCO3 and HEPES buffered to pH 7. Cells were grown to confluence in T75 culture flasks in the presence of 10% fetal bovine serum (FBS; Gibco, Thermo Fisher Scientific, Waltham, MA, USA). HFL1 cells were subcultured using 0.05% trypsin at a ratio of 1:3. NIH/3T3 cells were cultured in Dulbecco’s Modified Eagle Medium (DMEM; HyClone, Thermo Fisher Scientific) containing 100 U/mL penicillin and 100 μg/mL streptomycin. Cells were grown to confluence in T75 culture flasks in the presence of 10% FBS. NIH/3T3 cells were subcultured using 0.05% trypsin/EDTA at a ratio of 1:3. All cells were maintained at 37 °C and 5% CO2, and growth medium was replenished every 3 days until experimentation. Cells were growth-arrested in serum-free medium for 48 h before experiments, and all experiments were performed under serum-free conditions using cells between passages 3 and 8.
(§1) Reverse transcription (RT) and real-time quantitative PCR (qRT-PCR) were used to assess ACTA2/Acta2, Col1a1, Col3a1, Fn1, Eda-Fn1, Mmp9, Tgfb1, Ltbp1, Hic5, and Mrtfa mRNA expressions. Custom PCR primers were designed in-house (Table 2) and then synthesized by BGI (Beijing, China). Cells were grown in 6-well culture plates and washed with phosphate buffered saline (PBS) before lysis with TRIzon Reagent (CWBio, Beijing, China) and total RNA purification according to the manufacturer’s protocol. Reverse transcription was carried using the TransScript First-Strand cDNA Synthesis SuperMix kit according to the manufacturer’s protocol (TransGen, Beijing, China), using the random primer method for the initiation of cDNA synthesis. Nuclease-free H2O replaced the RNA sample to serve as a negative control for the reverse transcription reaction. For qRT-PCR, 10 µL 2× TransStart Top Green qPCR SuperMix was added to each well of a 96-well PCR plate containing 0.4 µL forward primer, 0.4 µL reverse primer, […], and nuclease-free water to a total volume of 20 µL. […]
In general terms: Real-time PCR tracks product formation cycle by cycle.

Test [5] relates to Col1a1 mRNA. In words: qRT-PCR Col1a1 mRNA. Format: cell-based, mouse. As for the experimental part: as §1, with “µL. The qRT-PCR reaction was completed using a CFX96 Real-Time PCR Detection System (Bio-Rad Laboratories, Hercules, CA, USA). Amplification used the following parameters: 94 °C for 30 s, followed by 40 cycles of 94 °C for 5 s, 55 °C for 15 s, 72 °C for 10 s, and then a dissociation stage (melt-curve).” for “µL.”

With “VMPYISTTPAKPCTSENCGNSWYGGFKSKNENKIYFIN (disulfide 13-18 (inferred)) [AF38Pep]”, the “ITC interaction (thermogram)” value in test [1] was “not between AF38Pep and FN-RGD or COL-RGD”. Moreover, the pro-MMP2 gelatinase activity entry in test [2] is “suppressed activity levels”. The “α-SMA protein expression (stress fibers)” value in test [3] is recorded as “inhibited”. Further, the “attenuation of TGF-β1-induced α-SMA mRNA” value in test [4] (NIH/3T3, 48 h, all concentrations tested (log10 dilution range)) was “significantly attenuated gene induction at 48 h in all concentrations tested”; in test [4] (NIH/3T3, 72 h, 10 µg/mL) it was “only AF38Pep treatment at a concentration of 10 µg/mL was sufficient to significantly attenuate the α-SMA mRNA upregulation”; in test [4] (NIH/3T3, 72 h, 0.1–1 µg/mL), “not able to effectively inhibit the differentiation response over the 72 h duration of treatment”. The “collagen type I mRNA expression” value in test [5] (72 h, TGF-β1 + AF38Pep) is given as “all inhibited”; in test [5] (by 48 h, vs TGF-β1-only) it was “significant attenuation”.
